# Test results: US20090202499A1, “Human Telomerase Reverse Transcriptase Peptides” (priority 2006, published 2009)
# Entries after “also recorded” stand apart in the source; their conditions may differ.
# Columns and labels:
# [1] = biological target: HLA-B7 (HLA-B*0702) (Homo sapiens, UniProt P01889); experiment: MHC stabilization assay on T2-B7 cells (relative avidity); assay type: cell-based; conditions: summary of both binding assays of Table II
# Experimental: MHC binding assays. Relative avidity measurements. The relative avidity of hTRT peptides for HLA B7 was measured using a MHC stabilization assay on T2-B7 cells in comparison with a reference peptide as described previously (14).
# (§1) Next, we assessed the actual binding avidity for HLA-B7 (HLA-B*0702). Two independent assays were used: binding stabilization assay on T2-B7 cells by flow cytometry (12) and a competitive solid-phase radioimmunoassay on immobilized purified HLA-B7 molecule (35).
# [2] = tested on: HLA B7-supertype molecules (B*0702, B*3501, B*5101, B*5301, B*5401) and B*0801; experiment: HLA-B7 supertype binding, summary over the allele panel; set-up: species or system human; conditions: alleles B*3501, B*5101, B*5301, B*5401 and B*0801
# Experimental: (§2) Supertype analysis. Quantitative assays to measure the binding affinity of peptides to purified HLA B7-supertype molecules (B*0702, B*3501, B*5101, B*5301, B*5401) and B*0801 were based on the inhibition of binding of a radiolabeled standard peptide, and were performed as previously described (22, 35). Briefly, 1-10 nM of radiolabeled peptide was co-incubated at room temperature with 1 microM to 1 nM of purified MHC in the presence of 1-3 μM human beta2-microglobulin (Scripps Laboratories, San Diego, Calif.) and a cocktail of protease inhibitors. After a two-day incubation, binding of the radiolabeled peptide to the corresponding MHC class I molecule was determined by capturing MHC/peptide complexes on Greiner Lumitrac 600 microplates (Greiner Bio-one, Longwood, Fla.) coated with the W6/32 antibody, and measuring bound counts per minute (cpm) using the TopCount microscintillation counter (Packard Instrument Co.). […] Under the conditions utilized, where [label]<[MHC] and IC50≧[MHC], the measured IC50 values are reasonable approximations of the true Kd values.
# HLA molecules are highly polymorphic posing problems to the identification of peptides, which could be used to cover the totality of the human population. However, HLA alleles can be clustered into a relatively small number of groups termed supertypes (21). The HLA-B7 supertype includes ten alleles (22). Here, we decided to test the selected hTRT peptides for their ability to bind five out of ten members of the HLA-B7 supertype (B*3501, B*5101, B*5301, B*5401) and B*0801. The B*0801 allele shares binding features with B*0702, although is not officially part of the HLA-B7 supertype. This analysis had the purpose to further narrow the selection of putative HLA-B7 immunogens based on supertype binding (Table V).
# [3] = biological target: B*0702 (Homo sapiens, UniProt P01889); experiment: competition solid-phase radioimmunoassay on purified HLA molecule; assay type: binding
# Experimental: as §2, §1
# [4] = tested on: JY cells; experiment: lysis of hTRT positive JY cells by human CTL against p1123; assay type: cell-based; conditions: CTL from normal donors; no peptide pulsing
# Experimental: Tests were run in duplicates at the indicated E:T ratios. CTL were used after 4 cycles of in vitro restimulation with homologous peptide. […].
# In vitro immunization procedures. In experiments shown in Table III and FIG. 3, immunizations were performed in 96 well plates. Briefly, 2×10^5 irradiated (6000 rads) human PBMC were plated in 96 (flat) well-plate in 100 micro-liters of complete human medium (RPMI 1640 medium containing 10% heat inactivated human AB serum, 2 mM glutamine, 50 micro-grams/ml streptomycin and 50 micro-grams/ml penicillin) with 100 micro-grams/ml of peptide. 12 wells per peptide were plated per patient. Then 2×10^5 PBMC in 100 micro-liters of complete human medium were added into each well. Four days later 100 micro-liters of medium were replaced with 100 micro-liters of fresh complete human medium containing 80 IU/ml of IL-2. At day 6-7, 100 IU/ml of IL-2 were added and wells were split into two. On day 10-11 micro-cytotoxicity assay was performed. […]
# (§3) CTL assays. Both murine and human CTL were detected by the ^51Cr release assay performed as previously described (14). […] The supernatants were harvested and counted on a Wallac 1470 Wizard Gamma counter. The percent lysis was calculated as 100 (cpmexp−cpmspont)/(cpmmax−cpmspont). […]
# [5] = tested on: human T2-B7 pulsed with p1123; experiment: murine CTL line specific for p1123, 51Cr-release assay; assay type: cell-based; conditions: mCTL from p1123-immunized HLA-B7 Tg mice
# [6] = tested on: T2-B7 target cells pulsed with p1123; experiment: conventional in vitro immunization of human PBMC with p1123, 51Cr-release assay; assay type: cell-based
# Experimental: FIG. 4. Characterization of human CTL generated by in vitro immunization. An example of one of two HLA-B7^+ normal donor PBMC from and a prostate cancer patient. Immunization in vitro was performed using a conventional method (12). […] CTL were tested after 5 cycles of in vitro restimulation with homologous peptide. (B) Surface phenotype analysis using anti-CD3 and anti-CD8 monoclonal antibodies of the CTL shown in panel A. The percentage of double positive cells is indicated. […] CTL were tested after 7 cycles of in vitro restimulation with homologous peptide. (D) Surface phenotype analysis using anti-CD3 and anti-CD8 monoclonal antibodies of the CTL from the same patient shown on panel C after 5 cycles of in vitro restimulation with homologous peptide. Experiments shown in A and B are representative of set of similar data from two normal donors examined at different times.
# In vitro immunization procedures. In experiments shown in Table III and FIG. 3, immunizations were performed in 96 well plates. […]
# as §3
Structure (SMILES),binding avidity for HLA-B7 (in words) [1],HLA-B7 supertype binding (in words) [2],IC50 [3] [nM],lysis of JY cells by CTL against p1123 (in words) [4],lytic activity of mCTL line for T2-B7 pulsed with peptide (in words) [5],"CTL induction and lysis of T2-B7 pulsed with p1123 (in words) ([6]; PBMC from HLA-B7+ normal blood donors, repeated in vitro restimulation)","efficiency of CTL induced (in words) ([6]; PBMC from a prostate cancer patient, compared with normal donors)"
CC(C)C[C@H](NC(=O)[C@H](CO)NC(=O)[C@@H](NC(=O)[C@H](C)NC(=O)[C@H](CCC(=O)O)NC(=O)[C@H](CCC(=O)O)NC(=O)[C@H](C)NC(=O)[C@@H]1CCCN1C(=O)[C@@H](N)CCCNC(=N)N)[C@@H](C)O)C(=O)O [p277],high avidity binding; also recorded: high binding in vitro,bound four alleles with intermediate avidity,–,–,–,–,–
CC(C)C[C@H](NC(=O)[C@H](CC(C)C)NC(=O)[C@H](CCC(N)=O)NC(=O)[C@@H](NC(=O)[C@H](CC(C)C)NC(=O)[C@H](CCCNC(=N)N)NC(=O)[C@H](CCCNC(=N)N)NC(=O)[C@@H]1CCCN1C(=O)[C@@H](N)CC(=O)O)C(C)C)C(=O)O [p444],poor and weak binding and poor binding,little HLA-B7 supertype binding,239,–,–,–,–
CC(C)C[C@H](NC(=O)[C@H](CCCNC(=N)N)NC(=O)[C@H](CCCNC(=N)N)NC(=O)[C@H](CC(C)C)NC(=O)[C@H](CS)NC(=O)[C@H](C)NC(=O)[C@H](CCCNC(=N)N)NC(=O)[C@@H](NC(=O)[C@@H](N)Cc1ccccc1)C(C)C)C(=O)O [p464],–,little HLA-B7 supertype binding,4.1,–,–,–,–
"CC(C)C[C@H](NC(=O)[C@H](C)NC(=O)[C@@H](NC(=O)[C@H](CC(C)C)NC(=O)[C@@H](NC(=O)[C@@H](NC(=O)CNC(=O)[C@@H]1CCCN1C(=O)[C@@H](N)CC(C)C)[C@@H](C)O)[C@@H](C)O)[C@@H](C)O)C(=O)O [p1107, LPGTTLTAL]",high avidity binding; also recorded: high binding in vitro,bound with high avidity three out of five alleles,0.96,–,–,–,–
CC[C@H](C)[C@H](NC(=O)[C@@H](NC(=O)[C@H](CCCCN)NC(=O)[C@H](Cc1ccccc1)NC(=O)[C@H](CC(=O)O)NC(=O)[C@H](CO)NC(=O)[C@@H]1CCCN1C(=O)[C@@H](N)CC(C)C)[C@@H](C)O)C(=O)N[C@@H](CC(C)C)C(=O)O [p1123],–,bound to various alleles of the HLA-B7 supertype; also recorded: measurable avidity for all alleles examined,11,also killed JY cells in the absence of any peptide pulsing,high lytic activity,high efficiency CTL were induced,less efficient
